Reference: patent US20230263822A1, “MODULATION OF FACTOR 11 EXPRESSION” (Ionis Pharmaceuticals, Inc., priority 2008, published 2023)

Experiment: Hematology assays in cynomolgus monkeys (Example 45)
Type: in vivo
Conditions: for MCH / MCHC / MCV / RBC count / WBC count / hematocrit / hemoglobin: escalating dose regimen
Method: Groups, each consisting of two male and three female monkeys, were injected subcutaneously with ISIS 416838, ISIS 416850, ISIS 416858, ISIS 416864, or ISIS 417002 in escalating doses. Antisense oligonucleotide was administered to the monkeys at 5 mg/kg three times per a week for week 1; 5 mg/kg twice per week for weeks 2 and 3; 10 mg/kg three times per week for week 4; 10 mg/kg twice per week for weeks 5 and 6; 25 mg/kg three times per week for week 7; and 25 mg/kg twice per week for weeks 8, 9, 10, 11, and 12. One control group, consisting of two male and three female monkeys, was injected subcutaneously with PBS according to the same dosing regimen. An additional experimental group, consisting of two male and three female monkeys, was injected subcutaneously with ISIS 416850 in a chronic, lower dose regimen. Antisense oligonucleotide was administered to the monkeys at 5 mg/kg three times per week for week 1; 5 mg/kg twice per week for week 2 and 3; 10 mg/kg three times per week for week 4; and 10 mg/kg twice per week for weeks 5 to 12. Body weights were measured weekly. Blood samples were collected 14 days and 5 days before the start of treatment and subsequently once per week for Factor 11 protein activity analysis in plasma, fibrinogen measurement, PT and aPTT measurements, bleeding times, and measurement of various hematologic factors. On day 85, the monkeys were euthanized by exsanguination while under deep anesthesia, and organs harvested for further analysis.
The ISIS oligonucleotide, ISIS 416850, given with the chronic dose regimen is distinguished from the other oligonucleotides with an asterisk (*).

Substance “ISIS 416858: MOE gapmer, nucleobases 1275 to 1318 of SEQ ID NO: 1 (Table 8) (antisense ACGGCATTGGTGCACAGTTT; MOE gapmer, wing and gap sizes not given here)” has an MCH (Day 64) of 22 pg, an MCH (Day 71) of 22 pg and an MCH (Day 78) of 23 pg. It also gave an MCH (Day 85) of 22 pg, a basophils (day 8) of 0.3% and an eosinophils (day 8) of 0.3%. It also gave a lymphocytes (day 8) of 45%, a monocytes (day 8) of 2.7% and a neutrophils (day 8) of 51%. It also gave a platelet count (day 8) of 391000 µL⁻¹, a reticulocytes (day 8) of 1.2% and an MCH (day 8) of 23 pg. For the same substance, the MCHC (day 8) was 30 g/dL, the MCV (day 8) was 77 fL and the RBC count (day 8) was 5.6e+06 µL⁻¹. For the same substance, the WBC count (day 8) was 12000 µL⁻¹, the hematocrit (day 8) was 43% and the hemoglobin (day 8) was 12.8 g/dL. It also gave a basophils (day 15) of 0.2%, an eosinophils (day 15) of 0.3% and a lymphocytes (day 15) of 43%. It also gave a monocytes (day 15) of 2.2%, a neutrophils (day 15) of 54% and a platelet count (day 15) of 400000 µL⁻¹. For the same substance, the reticulocytes (day 15) was 1.6%, the MCH (day 15) was 23 pg and the MCHC (day 15) was 31 g/dL. For the same substance, the MCV (day 15) was 74 fL, the RBC count (day 15) was 5.4e+06 µL⁻¹ and the WBC count (day 15) was 11000 µL⁻¹. For the same substance, the hematocrit (day 15) was 40%, the hemoglobin (day 15) was 12.6 g/dL and the basophils (day 22) was 0.2%. For the same substance, the eosinophils (day 22) was 0.6%, the lymphocytes (day 22) was 49% and the monocytes (day 22) was 2.8%. For the same substance, the neutrophils (day 22) was 47%, the platelet count (day 22) was 316000 µL⁻¹ and the reticulocytes (day 22) was 1.3%. It also gave an MCH (day 22) of 24 pg, an MCHC (day 22) of 30 g/dL and an MCV (day 22) of 77 fL. For the same substance, the RBC count (day 22) was 5.3e+06 µL⁻¹, the WBC count (day 22) was 11000 µL⁻¹ and the hematocrit (day 22) was 41%. It also gave a hemoglobin (day 22) of 12.4 g/dL, a basophils (day 29) of 0.2% and an eosinophils (day 29) of 0.6%. The lymphocytes (day 29) was 51%, the monocytes (day 29) was 3.8% and the neutrophils (day 29) was 43%. The platelet count (day 29) was 336000 µL⁻¹, the reticulocytes (day 29) was 1.5% and the MCH (day 29) was 23 pg. For the same substance, the MCHC (day 29) was 30 g/dL, the MCV (day 29) was 78 fL and the RBC count (day 29) was 5.3e+06 µL⁻¹. It also gave a WBC count (day 29) of 12000 µL⁻¹, a hematocrit (day 29) of 41% and a hemoglobin (day 29) of 12.3 g/dL. For the same substance, the basophils (day 36) was 0.3%, the eosinophils (day 36) was 0.4% and the lymphocytes (day 36) was 49%. For the same substance, the monocytes (day 36) was 2.9%, the neutrophils (day 36) was 47% and the platelet count (day 36) was 371000 µL⁻¹. For the same substance, the reticulocytes (day 36) was 1.6%, the MCH (day 36) was 23 pg and the MCHC (day 36) was 31 g/dL. The MCV (day 36) was 75 fL, the RBC count (day 36) was 5.5e+06 µL⁻¹ and the WBC count (day 36) was 12000 µL⁻¹. For the same substance, the hematocrit (day 36) was 40%, the hemoglobin (day 36) was 12.6 g/dL and the basophils (day 43) was 0.3%. It also gave an eosinophils (day 43) of 0.3%, a lymphocytes (day 43) of 51% and a monocytes (day 43) of 3.1%. It also gave a neutrophils (day 43) of 45%, a platelet count (day 43) of 342000 µL⁻¹ and a reticulocytes (day 43) of 1.3%. It also gave an MCH (day 43) of 23 pg, an MCHC (day 43) of 31 g/dL and an MCV (day 43) of 74 fL. It also gave an RBC count (day 43) of 5.5e+06 µL⁻¹, a WBC count (day 43) of 11000 µL⁻¹ and a hematocrit (day 43) of 40%. The hemoglobin (day 43) was 12.4 g/dL, the basophils (day 50) was 0.4% and the eosinophils (day 50) was 0.4%. The lymphocytes (day 50) was 48%, the monocytes (day 50) was 4.6% and the neutrophils (day 50) was 46%. It also gave a platelet count (day 50) of 331000 µL⁻¹, a reticulocytes (day 50) of 1.5% and an MCH (day 50) of 23 pg. It also gave an MCHC (day 50) of 30 g/dL, an MCV (day 50) of 76 fL and an RBC count (day 50) of 5.5e+06 µL⁻¹. For the same substance, the WBC count (day 50) was 13000 µL⁻¹, the hematocrit (day 50) was 41% and the hemoglobin (day 50) was 12.2 g/dL. It also gave a basophils (day 57) of 0.2%, an eosinophils (day 57) of 0.3% and a lymphocytes (day 57) of 51%. The monocytes (day 57) was 3.8%, the neutrophils (day 57) was 44% and the platelet count (day 57) was 333000 µL⁻¹. For the same substance, the reticulocytes (day 57) was 1.4%, the MCH (day 57) was 22 pg and the MCHC (day 57) was 31 g/dL. For the same substance, the MCV (day 57) was 74 fL, the RBC count (day 57) was 5.6e+06 µL⁻¹ and the WBC count (day 57) was 13000 µL⁻¹. It also gave a hematocrit (day 57) of 41%, a hemoglobin (day 57) of 12.7 g/dL and a basophils (day 64) of 0.4%. For the same substance, the eosinophils (day 64) was 0.4%, the lymphocytes (day 64) was 56% and the monocytes (day 64) was 4.4%. The neutrophils (day 64) was 37%, the platelet count (day 64) was 295000 µL⁻¹ and the reticulocytes (day 64) was 1.0%. The MCHC (day 64) was 30 g/dL, the MCV (day 64) was 73 fL and the RBC count (day 64) was 5.7e+06 µL⁻¹. For the same substance, the WBC count (day 64) was 12000 µL⁻¹, the hematocrit (day 64) was 42% and the hemoglobin (day 64) was 12.8 g/dL. It also gave a basophils (day 71) of 0.4%, an eosinophils (day 71) of 0.9% and a lymphocytes (day 71) of 66%. For the same substance, the monocytes (day 71) was 4.9%, the neutrophils (day 71) was 26% and the platelet count (day 71) was 286000 µL⁻¹. It also gave a reticulocytes (day 71) of 1.3%, an MCHC (day 71) of 30 g/dL and an MCV (day 71) of 75 fL. The RBC count (day 71) was 5.6e+06 µL⁻¹, the WBC count (day 71) was 13000 µL⁻¹ and the hematocrit (day 71) was 42%. For the same substance, the hemoglobin (day 71) was 12.7 g/dL, the basophils (day 78) was 0.4% and the eosinophils (day 78) was 0.5%. It also gave a lymphocytes (day 78) of 54%, a monocytes (day 78) of 4.9% and a neutrophils (day 78) of 39%. The platelet count (day 78) was 262000 µL⁻¹, the reticulocytes (day 78) was 1.2% and the MCHC (day 78) was 32 g/dL. For the same substance, the MCV (day 78) was 72 fL, the RBC count (day 78) was 5.4e+06 µL⁻¹ and the WBC count (day 78) was 11000 µL⁻¹. The hematocrit (day 78) was 39%, the hemoglobin (day 78) was 12.4 g/dL and the basophils (day 85) was 0.3%. It also gave an eosinophils (day 85) of 0.6%, a lymphocytes (day 85) of 52% and a monocytes (day 85) of 6.1%. The neutrophils (day 85) was 40%, the platelet count (day 85) was 267000 µL⁻¹ and the reticulocytes (day 85) was 1.3%. For the same substance, the MCHC (day 85) was 31 g/dL, the MCV (day 85) was 72 fL and the RBC count (day 85) was 5.5e+06 µL⁻¹. It also gave a WBC count (day 85) of 11000 µL⁻¹, a hematocrit (day 85) of 39% and a hemoglobin (day 85) of 11.9 g/dL. For the same substance, the basophils (day −5) was 0.3%, the eosinophils (day −5) was 1.3% and the lymphocytes (day −5) was 49%. It also gave a monocytes (day −5) of 2.8%, a neutrophils (day −5) of 46% and a platelet count (day −5) of 463000 µL⁻¹. For the same substance, the reticulocytes (day −5) was 0.9%, the MCH (day −5) was 23 pg and the MCHC (day −5) was 31 g/dL. For the same substance, the MCV (day −5) was 75 fL, the RBC count (day −5) was 5.6e+06 µL⁻¹ and the WBC count (day −5) was 14000 µL⁻¹. The hematocrit (day −5) was 42%, the hemoglobin (day −5) was 13.2 g/dL and the basophils (day −14) was 0.3%. For the same substance, the eosinophils (day −14) was 0.7%, the lymphocytes (day −14) was 58% and the monocytes (day −14) was 2.8%. The neutrophils (day −14) was 37%, the platelet count (day −14) was 419000 µL⁻¹ and the reticulocytes (day −14) was 1.0%. For the same substance, the MCH (day −14) was 24 pg, the MCHC (day −14) was 31 g/dL and the MCV (day −14) was 77 fL. For the same substance, the RBC count (day −14) was 5.6e+06 µL⁻¹, the WBC count (day −14) was 14000 µL⁻¹ and the hematocrit (day −14) was 43%. For the same substance, the hemoglobin (day −14) was 13.2 g/dL.
